Molecular target: T1, Human Aryl Hydrocarbon Receptor (AhR) (Homo sapiens, UniProt P35869)
T1 construct: purchased INDIGO Bioscience IB06001-32; host or cells: AhR Reporter Cell (the kit's proprietary reporter cells)
T1 sequence (P35869 11-848): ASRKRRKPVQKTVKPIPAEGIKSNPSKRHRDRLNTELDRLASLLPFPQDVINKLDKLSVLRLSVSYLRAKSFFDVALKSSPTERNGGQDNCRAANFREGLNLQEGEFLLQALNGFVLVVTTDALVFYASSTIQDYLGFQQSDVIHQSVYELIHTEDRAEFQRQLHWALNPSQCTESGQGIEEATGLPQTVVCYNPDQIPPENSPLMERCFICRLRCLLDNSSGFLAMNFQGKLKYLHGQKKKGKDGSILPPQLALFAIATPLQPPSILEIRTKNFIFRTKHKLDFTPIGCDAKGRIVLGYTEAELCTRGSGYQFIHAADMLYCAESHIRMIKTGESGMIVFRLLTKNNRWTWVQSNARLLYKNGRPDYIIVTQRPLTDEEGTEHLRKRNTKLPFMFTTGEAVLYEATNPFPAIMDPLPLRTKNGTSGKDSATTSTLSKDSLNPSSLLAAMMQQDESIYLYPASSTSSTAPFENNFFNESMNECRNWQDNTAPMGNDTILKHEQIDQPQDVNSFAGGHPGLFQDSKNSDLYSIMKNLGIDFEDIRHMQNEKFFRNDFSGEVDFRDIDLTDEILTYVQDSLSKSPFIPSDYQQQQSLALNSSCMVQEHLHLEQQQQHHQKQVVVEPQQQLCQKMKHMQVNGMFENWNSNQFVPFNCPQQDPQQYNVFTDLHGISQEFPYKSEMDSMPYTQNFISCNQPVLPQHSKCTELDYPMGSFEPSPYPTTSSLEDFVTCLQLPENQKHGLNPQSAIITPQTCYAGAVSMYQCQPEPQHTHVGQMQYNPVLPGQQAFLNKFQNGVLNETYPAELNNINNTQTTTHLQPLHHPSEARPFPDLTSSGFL
Experiment: AhR reporter assay (Human Aryl Hydrocarbon Receptor (AhR) Reporter Assay System, INDIGO Bioscience)
Assay type: cell-based
Settings: AHR inhibition at 10 nM test compound; AhR Reporter Cells activated with 200 μM kynurenic acid, 24 hours; firefly luciferase; normalized by positive and negative controls
Method: The AhR reporter assay was performed following the protocol of the Human Aryl Hydrocarbon Receptor (AhR) Reporter Assay System (INDIGO Bioscience, #IB06001-32). AhR Reporter Cell was thawed and pre-incubated in Cell Recovery Medium (CRM) for 6 hours. The media was then removed and the cells were incubated with Compound Screening Medium (CSM) supplemented with 200 μM kynurenic acid for 24 hours in the absence (negative control) or presence of 10 nM test compounds. For positive inhibition control, cells activated with 200 μM kynurenic acid were incubated in the presence of literature AHR antagonists; alternatively un-activated cells were used as positive inhibition control. Following 24 hours incubation, the media was removed and Luciferase Detection Reagent (LDR) added. The firefly luciferase activity was quantified using a plate reader. Results were normalized by positive and negative controls.
The results of AHR inhibition at 10 nM for compounds as disclosed herein is reported in the below table.

## C[C@@H](CO)n1cnc2c(-c3cnn(C)c3)nc(-c3ccc(-c4ccccc4F)nc3)cc2c1=O [Compound 1]
  inhibition at 0.01 µM: 56%

## C[C@@H](CO)n1cnc2c(-c3cnn(C)c3)nc(/C=C/c3ccccc3)cc2c1=O [Compound 2]
  inhibition at 0.01 µM: 51%

## C[C@@H](CO)n1cnc2c(-c3cnn(C)c3)nc(-c3ccc(N4CCOCC4)cc3)cc2c1=O [Compound 3]
  inhibition at 0.01 µM: 66%

## C[C@@H](CO)n1cnc2c(-c3cnn(C)c3)nc(-c3ccc(N4CC5CCC(C4)O5)cc3)cc2c1=O [Compound 4]
  inhibition at 0.01 µM: 53%

## C[C@@H](CO)n1cnc2c(-c3cnn(C)c3)nc(-c3ccc(C4CCOCC4)cc3)cc2c1=O [Compound 5]
  inhibition at 0.01 µM: 40%

## C[C@@H](CO)n1cnc2c(-c3cnn(C)c3)nc(-c3ccc(-c4ccc(F)cc4)nc3)cc2c1=O [Compound 6]
  inhibition at 0.01 µM: 96%

## C[C@@H](CO)n1cnc2c(-c3cnn(C)c3)nc(-c3ccc(-c4ccc(Cl)cc4)nc3)cc2c1=O [Compound 7]
  inhibition at 0.01 µM: 90%

## C[C@@H](CO)n1cnc2c(-c3cnn(C)c3)nc(-c3ccc(-c4ccc(F)nc4)nc3)cc2c1=O [Compound 8]
  inhibition at 0.01 µM: 83%

## C[C@@H](CO)n1cnc2c(-c3cnn(C)c3)nc(-c3ccc(C4=CCOCC4)nc3)cc2c1=O [Compound 9]
  inhibition at 0.01 µM: 29%

## Cc1nn(C)c2cc(-c3cc4c(=O)n([C@@H](C)CO)cnc4c(-c4cnn(C)c4)n3)ccc12 [Compound 10]
  inhibition at 0.01 µM: 28%

## C[C@@H](CO)n1cnc2c(-c3cnn(C)c3)nc(-c3ccc(C4CCOCC4)nc3)cc2c1=O [Compound 11]
  inhibition at 0.01 µM: 3%

## C[C@@H](CO)n1cnc2c(-c3cnn(C)c3)nc(-c3ccc(-c4cccc(F)c4)nc3)cc2c1=O [Compound 12]
  inhibition at 0.01 µM: 72%

## C[C@@H](CO)n1cnc2c(-c3cnn(C)c3)nc(-c3ccc(N4CCCCC4)cc3)cc2c1=O [Compound 13]
  inhibition at 0.01 µM: 64%

## C[C@@H](CO)n1cnc2c(-c3cnn(C)c3)nc(N3CCN(c4ccc(F)cc4)CC3)cc2c1=O [Compound 14]
  inhibition at 0.01 µM: 85%

## C[C@@H](CO)n1cnc2c(-c3cnn(C)c3)nc(N3Cc4ccccc4C3)cc2c1=O [Compound 15]
  inhibition at 0.01 µM: 99%

## C[C@@H](CO)n1cnc2c(-c3cnn(C)c3)nc(N3CC=C(c4ccc(F)cc4)CC3)cc2c1=O [Compound 16]
  inhibition at 0.01 µM: 82%

## C[C@@H](CO)n1cnc2c(-c3cnn(C)c3)nc(N3CC4CCC(C3)N4c3ccc(F)cc3)cc2c1=O [Compound 17]
  inhibition at 0.01 µM: 35%

## C[C@@H](CO)n1cnc2c(-c3cnn(C)c3)nc(/C=C/c3ccc(F)cc3)cc2c1=O [Compound 20]
  inhibition at 0.01 µM: 70%

## C[C@@H](CO)n1cnc2c(-c3cnn(C)c3)nc(-c3ccc(C(=O)N4CCOCC4)cc3)cc2c1=O [Compound 21]
  inhibition at 0.01 µM: -0.3%

## C[C@@H](CO)n1cnc2c(-c3cnn(C)c3)nc(-c3ccc(N4CCOCC4)nc3)cc2c1=O [Compound 25]
  inhibition at 0.01 µM: 8%

## C[C@@H](CO)n1cnc2c(-c3cnn(C)c3)nc(-c3cnc(N4CCOCC4)nc3)cc2c1=O [Compound 26]
  inhibition at 0.01 µM: 24%

## CC1COCCN1c1ccc(-c2cc3c(=O)n([C@@H](C)CO)cnc3c(-c3cnn(C)c3)n2)cn1 (stereo partly shown) [Compound 27]
  inhibition at 0.01 µM: 45%

## C[C@@H](CO)n1cnc2c(-c3cnn(C)c3)nc(-c3ccc(C(=O)N4CCCNCC4)cc3)cc2c1=O [Compound 28]
  inhibition at 0.01 µM: -5%

## C[C@@H](CO)n1cnc2c(-c3cnn(C)c3)nc(-c3ccc(C(=O)N4CCC(O)C4)cc3)cc2c1=O (stereo partly shown) [Compound 29]
  inhibition at 0.01 µM: 8%

## C[C@@H](CO)n1cnc2c(-c3cnn(C)c3)nc(-c3ccc(C(=O)N4CCC(N)CC4)cc3)cc2c1=O [Compound 30]
  inhibition at 0.01 µM: -5%

## C[C@@H](CO)n1cnc2c(-c3cnn(C)c3)nc(-c3ccc(N4CCN(S(C)(=O)=O)CC4)cc3)cc2c1=O [Compound 31]
  inhibition at 0.01 µM: 24%

## C[C@@H](CO)n1cnc2c(-c3cnn(C)c3)nc(-c3ccc(C(=O)N4CCNCC4)cc3)cc2c1=O [Compound 32]
  inhibition at 0.01 µM: -16%

## C[C@@H](CO)n1cnc2c(-c3cnn(C)c3)nc(-c3ccc(C(=O)N4CCC(N)C4)cc3)cc2c1=O (stereo partly shown) [Compound 34]
  inhibition at 0.01 µM: 6%

## C[C@@H](CO)n1cnc2c(-c3cnn(C)c3)nc(-c3ccc(C(=O)N4CCC(O)CC4)cc3)cc2c1=O [Compound 35]
  inhibition at 0.01 µM: 5%

## C[C@@H](CO)n1cnc2c(-c3cnn(C)c3)nc(-c3ccc(NC(=O)CN4CCOCC4)nc3)cc2c1=O [Compound 39]
  inhibition at 0.01 µM: -4%

## C[C@@H](CO)n1cnc2c(-c3cnn(C)c3)nc(-c3ccc(-c4cncc(F)c4)nc3)cc2c1=O [Compound 41]
  inhibition at 0.01 µM: 39%

## C[C@@H](CO)n1cnc2c(-c3cnn(C)c3)nc(-c3ccc(NC(=O)CN4CCOCC4)cc3)cc2c1=O [Compound 42]
  inhibition at 0.01 µM: 16%

## C[C@@H](CO)n1cnc2c(-c3cnn(C)c3)nc(-c3ccc(-c4ccc(=O)n(C)c4)cc3)cc2c1=O [Compound 44]
  inhibition at 0.01 µM: 44%

## C[C@@H](CO)n1cnc2c(-c3cnn(C)c3)nc(N3Cc4cccc(F)c4C3)cc2c1=O [Compound 52]
  inhibition at 0.01 µM: 35%

## Cc1cc(N2CCOCC2)ccc1-c1cc2c(=O)n([C@@H](C)CO)cnc2c(-c2cnn(C)c2)n1 [Compound 54]
  inhibition at 0.01 µM: 1%

## C[C@@H](CO)n1cnc2c(-c3cnn(C)c3)nc(N3Cc4ccc(F)cc4C3)cc2c1=O [Compound 56]
  inhibition at 0.01 µM: 99%

## Cc1cc(-c2cc3c(=O)n([C@@H](C)CO)cnc3c(-c3cnn(C)c3)n2)ccc1N1CCOCC1 [Compound 57]
  inhibition at 0.01 µM: 29%

## C[C@@H](CO)NC(=O)c1cc(-c2ccc(-c3ccccc3F)nc2)nc(-c2cnn(C)c2)n1 [Compound 59]
  inhibition at 0.01 µM: 24%

## C[C@@H](CO)NC(=O)c1cc(N2CCN(c3ccc(F)cc3)CC2)nc(-c2cnn(C)c2)n1 [Compound 60]
  inhibition at 0.01 µM: 21%

## C[C@@H](CO)NC(=O)c1cc(-c2ccc(-c3ccc(F)cc3)nc2)nc(-c2cnn(C)c2)n1 [Compound 61]
  inhibition at 0.01 µM: 62%

## C[C@@H](CO)NC(=O)c1cc(-c2ccc(N3CCOCC3)cc2)nc(-c2cnn(C)c2)n1 [Compound 62]
  inhibition at 0.01 µM: 29%

## C[C@@H](CO)NC(=O)c1cc(N2Cc3ccccc3C2)nc(-c2cnn(C)c2)n1 [Compound 63]
  inhibition at 0.01 µM: 58%

## C[C@@H](CO)NC(=O)c1cc(N2Cc3ccccc3C2=O)nc(-c2cnn(C)c2)n1 [Compound 64]
  inhibition at 0.01 µM: 49%

## C[C@@H](CO)NC(=O)c1cc(N2CCN(c3ccc(F)cc3)CC2)nc(-c2cnn(C(F)(F)F)c2)n1 [Compound 65]
  inhibition at 0.01 µM: 7%

## C[C@@H](CO)NC(=O)c1cc(N2CCN(c3ccc(F)cc3)CC2)nc(-c2cccc(F)c2)n1 [Compound 66]
  inhibition at 0.01 µM: 69%

## Cc1nn(C)c2cc(-c3cc(C(=O)N[C@@H](C)CO)nc(-c4cnn(C)c4)n3)ccc12 [Compound 67]
  inhibition at 0.01 µM: 33%

## C[C@@H](CO)NC(=O)c1cc(-c2ccc(-c3cccc(F)c3)nc2)nc(-c2cnn(C)c2)n1 [Compound 68]
  inhibition at 0.01 µM: 62%

## C[C@@H](CO)NC(=O)c1cc(-c2ccc(-c3ccc(F)nc3)nc2)nc(-c2cnn(C)c2)n1 [Compound 69]
  inhibition at 0.01 µM: 60%

## C[C@@H](CO)NC(=O)c1cc(-c2ccc(-c3ccc(Cl)cc3)nc2)nc(-c2cnn(C)c2)n1 [Compound 70]
  inhibition at 0.01 µM: 87%

## C[C@@H](CO)NC(=O)c1cc(-c2ccc(C3CCOCC3)cc2)nc(-c2cnn(C)c2)n1 [Compound 71]
  inhibition at 0.01 µM: 37%

## C[C@@H](CO)NC(=O)c1cc(N2CCN(c3ccc(F)cc3)[C@@H](C)C2)nc(-c2cnn(C)c2)n1 [Compound 72]
  inhibition at 0.01 µM: 13%

## C[C@@H]1CN(c2cc(C(=O)N[C@@H](C)CO)nc(-c3cnn(C)c3)n2)CCN1c1ccc(F)cc1 [Compound 73]
  inhibition at 0.01 µM: 23%

## C[C@@H](CO)NC(=O)c1cc(N2CC3CCC(C2)N3c2ccc(F)cc2)nc(-c2cnn(C)c2)n1 [Compound 74]
  inhibition at 0.01 µM: 13%

## C[C@@H](CO)NC(=O)c1cc(N2CCN(C(=O)c3ccc(F)cc3)CC2)nc(-c2cnn(C)c2)n1 [Compound 75]
  inhibition at 0.01 µM: 24%

## C[C@@H]1CN(c2ccc(F)cc2)CCN1c1cc(C(=O)N[C@@H](C)CO)nc(-c2cnn(C)c2)n1 [Compound 76]
  inhibition at 0.01 µM: 1%

From patent US20260272944A1, “PYRIDO[3,4-D]PYRIMIDINONE AND PYRIMDLLNE ARYL HYDROCARBON RECEPTOR ANTAGONISTS AND USES THEREOF” (ALLIANTHERA (SUZHOU) BIOPHARMACEUTICAL CO., LTD., priority 2023, published 2026)
